Assay results as given in patent publication US9180212B2, “β-amyloid plaque imaging agents” (The Regents of the University of California, priority 2012, dated 2015).
Entries after “also recorded” stand apart in the source; their conditions may differ.

How the values were obtained:
[1] = test system: brown adipose tissue (BAT) metabolic activity; assay: ^18F-FDG PET/CT uptake in interscapular BAT of rats; assay type: in vivo, Sprague-Dawley rats
Source text: (§1) In still further experiments, binding/uptake of contemplated compounds to/by NET was investigated in adipose tissue, and especially brown adipose tissue. It should be appreciated that due to the innervation of brown adipose tissue (BAT) with neurotransmitter, norepinephrine is essential for regulation of thermogenesis, and thus has a role in obesity and diabetes. Norepinephrine acts by activating β3-adrenoceptor to increase BAT metabolic activity measurable using ^18F-FDG PET. Norepinephrine transporter (NET) inhibitors such as atomoxetine play an important role in BAT activity by increasing norepinephrine levels.
(§2) Male Sprague-Dawley rats were fasted for 24 hrs prior to ^18F-FDG administration. Rats were administered i.v. ˜0.3 mCi ^18F-FDG under 2% isoflurane anesthesia. The same rats were treated with atomoxetine 1 mg/kg, 30 mins before ^18F-FDG administration. Rats were awake for 60 mins and subsequently anesthetized for upper-body Inveon MicroPET/CT scan. To evaluate whether enhanced ^18F-FDG uptake in activated BAT could be reduced by pharmacologic interventions, propranolol ([…]) 5 mg/kg was given intraperitoneally in anesthetized rats, 30 minutes prior to atomoxetine administration. For NET imaging, ^11C-TAZA (4-^11C-methylamino-4′-dimethylaminoazobenzene) and ^11C-Dalene (4-methylamino-4′-(N—^11C-methyl-N-methylamino)stilbene) were administered iv (˜0.5-3 mCi) and scanned in Inveon PET/CT for 90 mins. Competition studies were done with atomoxetine (preinjection, 1-2 mg/kg). PET/CT data was analysed using IRW and PMOD.

[2] = target: T1, amyloid plaques (Homo sapiens, UniProt P05067); assay: ^3H-PIB competition binding in human Alzheimers brain homogenate
T1 construct: target the polymeric form of the β-amyloid peptide that is associated with senile plaques; from tissue; host or cells: human Alzheimer's disease brain homogenate (post mortem)
T1 sequence (P05067 672-713 limits assumed): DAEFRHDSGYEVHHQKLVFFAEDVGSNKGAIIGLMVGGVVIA

[3] = target: T2, SP (senile plaques) in hippocampus of AD patients (Homo sapiens, UniProt P05067); assay: In vitro autoradiography of human hippocampus slices (AD vs control), senile plaque imaging; assay type: binding; details: for Binding to SP present in AD brains compared to the normal controls (in words): autoradiography
T2 construct: target the polymeric form of the β-amyloid peptide that is associated with senile plaques; from tissue; host or cells: 7 micron frozen sections of hippocampus of AD patients and control brains (UCI-ADRC repository)
T2 sequence (P05067 672-713 limits assumed): as above
Source text: Human post-mortem Studies: We used post mortem human brain specimens from the UCI-ADRC Brain tissue repository for in vitro experiments. Age and gender matched AD brain and control brain tissue were used. Control cases consisted of clinically assessed nondemented individuals ranging in age from 70-90 years of age. AD brain samples were selected for end-stage pathology (based upon comments by the neuropathologist and Braak & Braak stage of VI. We matched each AD case with a similarly aged control case. AD cases, were selected on the basis as having a clinic visit within 1 year of death. Frozen hippocampus and frontal cortex, regions vulnerable to AD pathology, were selected for these studies. Sections of the cerebellum were used as a measure of low/nonspecific binding. Chunks of frozen tissue were dissected for immunohistochemical and autoradiographic techniques, as well as for biochemical experiments.
Serial cryostat sections at 5-10 μm were used. The first set of sections was used to establish the extent of senile plaque and neurofibrillary tangle formation using immunohisto-chemistry and histological techniques. Antibodies against Aβ1-16, Aβ1-40 and Aβ1-42 were used to detect Aβ.
In vitro autoradiography studies were performed on 7 micron slices of hippocampus of AD patients (n=2) and control brains (n=2). Hippocampus slices were incubated with the radiotracer (10-25 μCi/cc) in 40% ethanol-water for ½ hour.
Binding to norepinephrine transporters (NET) were further evaluated in normal rats using PET/CT. Radiosynthesis was carried out by reacting 4-amino-4′-dimethylaminoazobenzene (1 mg/0.5 cc acetone for ^11C-TAZA) and 4-methylamino-4′-(N-methylamino)stilbene (1 mg/0.5 cc acetone for ^11C-Dalene) with 11C-methyltriflate prepared in the GE FXCPro synthesis unit. ^11C-Methyltriflate was trapped at −20° C., subsequently heated for 5 mins at 80° C. and purified using HPLC. In vitro autoradiography studies were performed on 7 micron slices of hippocampus of AD patients and control brains.
(§3) Slices were then washed and exposed on to phosphor screens and slides were analysed by Optiquant image analysis program for SP binding Digital light units/mm^2 (DLU/mm^2). Sprague-Dawley rats were scanned after IV injection of ^11C-TAZA and ^11C-Dalene in Inveon PET/CT and displacement studies were done with atomoxetine (1 mg/kg). PET images were analyzed using PMOD.

[4] = test system: NET in brown adipose tissue (BAT); assay: Rat PET/CT NET imaging in brown adipose tissue; assay type: in vivo, Sprague-Dawley rats; details: atomoxetine preinjection 1-2 mg/kg
Source text: as §1
as §2, with “For NET imaging, ^11C-TAZA (4-^11C-methylamino-4′-dimethylaminoazobenzene) and ^11C-Dalene (4-methylamino-4′-(N—^11C-methyl-N-methylamino)stilbene) were administered iv (˜0.5-3 mCi) and scanned in Inveon PET/CT for 90 mins. Competition studies were done with atomoxetine (preinjection, 1-2 mg/kg).” left out

[5] = test system: norepinephrine transporters (NET); assay: Rat brain PET with atomoxetine pre-injection (NET binding/uptake); assay type: in vivo, Sprague-Dawley rats
Procedure: Based on earlier experimental observations (not shown), the inventors contemplated that the compounds presented herein not only bind with high specificity to β-amyloid, but also with similar high specificity to the NET. To investigate binding to/uptake by the NET, the effect of atomoxetine (ATX, a selective norepinephrine reuptake inhibitor) on the kinetics of Dalene and TAZA was tested. More specifically, Sprague-Dawley rats (308-468 g) received two 90 min PET scans each on two separate days (1-4 weeks apart) with an Inveon scanner. On first day each rat received a baseline scan, one with [^11C]Dalene and the other with [^11C]TAZA (96±8 MBq). The second day each animal was pre-injected i.v. with a 50 μl bolus of ATX (1-2 mg/Kg), 17 min before [^11C]Dalene and 2 min before [^11C]TAZA (33±7 MBq). The images were reconstructed dynamically in 25 frames (4×0.5 min, 8×1 min, 5×2 min, 2×5 min, 6×10 min). Each subject received a CT scan that was used for attenuation and scatter correction. Images were normalized to Paxinos & Watson space via co-registration with an MR rat template. Common regions of interest were drawn on the MR template and placed on brainstem, thalamus (Tha), and midbrain (Mid), brain regions with highest uptake as well as anterior cingulate cortex area 1 (Cg1), region with low NET density and which was chosen as a reference based on previous studies. Time activity curves (TACs) from all regions were analyzed in PMOD using Logan non-invasive method with Cg1's k2′ parameter estimated by fitting of brainstem data to MRTM.
as §3, with “PMOD. […] Presence of SP in the AD brains were confirmed using 4G8 antibody immunostaining for Aβ-amyloid. […] Ratios of brain stem to cingulate gyms (used as reference region) was >2.” for “PMOD.”

[6] = cited from earlier work

SMILES: CNCC[C@@H](Oc1ccccc1C)c1ccccc1 [Atomoxetine, atomoxetine]
- increase of average ^18F-FDG uptake of IBAT compared to controls ([1]; atomoxetine 1 mg/kg, 30 mins before ^18F-FDG): > 15 times
- average ^18F-FDG uptake of IBAT ([1]; atomoxetine 1 mg/kg, 30 mins before ^18F-FDG, controls 23.9±8.7): 365±170 kBq/cc

SMILES: CC(C)NCC(O)COc1cccc2ccccc12 (centres unmarked) [Propranolol, propranolol]
- effect on average ^18F-FDG uptake of IBAT (in words) ([1]; propranolol 5 mg/kg intraperitoneally, 30 minutes prior to atomoxetine): reduced

SMILES: CNc1ccc(N=Nc2ccc(N(C)C)cc2)cc1 [TAZA]
- IC50 ([2]; human Alzheimers brain homogenate tissue in 10% alcohol in PBS buffer, ^3H-PIB, read-out: binding affinity (IC50)): 0.0128 µM
- times better in binding to amyloid plaques compared to PIB ([2]; human brain tissue, from IC50 values): ~10 times

SMILES: CN(C)c1ccc(C=Cc2ccc(N[11CH3])cc2)cc1 [^11C-Dalene, 4-^11C-methylamino-4′-(N,N-dimethylamino)stilbene]
- Displacement of radiotracer by unlabeled PIB (in words) ([3]; 10 μM PIB, hippocampus slices): not complete; also recorded: displaced
- Binding to SP present in AD brains compared to the normal controls (in words) ([3]; hippocampus slices): bound specifically
- reduction of IBAT binding by atomoxetine [4]: 35%
- Effect of atomoxetine on binding in NET brain regions (in words) ([5]; rat, in vivo): reduced the binding
- baseline BPND (Mid) ([5]; rat, in vivo): 0.91
- baseline BPND (Tha) ([5]; rat, in vivo): 0.86
- baseline BPND (brainstem) ([5]; rat, in vivo): 1.42
- change in BPND in ATX condition (Mid) ([5]; rat, in vivo): 5.4%
- change in BPND in ATX condition (Tha) ([5]; rat, in vivo): −12%
- change in BPND in ATX condition (brainstem) ([5]; rat, in vivo): −18%
- peak uptake in ATX condition relative to control ([5]; rat, in vivo): 14 fold
- time at which ratio target/reference reached a constant level ([5]; rat, in vivo): 20 min

SMILES: CN(C)c1ccc(N=Nc2ccc(N[11CH3])cc2)cc1 [^11C-TAZA, 4-^11C-methylamino-4′-dimethylamino-azobenzene]
- Displacement of radiotracer by PIB ([3]; 10 μM PIB, hippocampus slices): > 80%
- Displacement of radiotracer by unlabeled PIB (in words) ([3]; 10 μM PIB, hippocampus slices): displaced
- Binding to SP compared with the other radiotracers (in words) ([3]; ^11C-TAZA vs ^11C-Dalene and ^11C-PIB): higher specific binding component; also recorded: highest binding
- Binding to SP present in AD brains compared to the normal controls (in words) ([3]; hippocampus slices): bound specifically
- reduction of IBAT binding by atomoxetine [4]: 60%
- change in BPND in ATX condition (brainstem) ([5]; ATX 1-2 mg/Kg i.v. pre-injection): 11%
- Effect of atomoxetine on binding in NET brain regions (in words) ([5]; atomoxetine 1 mg/kg): reduced the binding
- time at which ratio target/reference reached a constant level ([5]; baseline condition, post tracer injection): 20 min
- baseline BPND (brainstem) ([5]; baseline scan, Logan non-invasive method, Cg1 reference): 0.7
- peak uptake in ATX condition relative to control ([5]; brainstem, ATX 1-2 mg/Kg i.v. pre-injection): 5 fold
- baseline BPND (Mid) ([5]; midbrain, baseline scan, Cg1 reference): 0.50
- change in BPND in ATX condition (Mid) ([5]; midbrain, ATX 1-2 mg/Kg i.v. pre-injection): 18%
- baseline BPND (Tha) ([5]; thalamus, baseline scan, Cg1 reference): 0.41
- change in BPND in ATX condition (Tha) ([5]; thalamus, ATX 1-2 mg/Kg i.v. pre-injection): 6%

SMILES: CC(=C(C#N)C#N)c1ccc2cc(N(C)CC[18F])ccc2c1 [^18F-FDDNP, 2-(1-{6-[(2-[^18F]fluoroethyl)(methyl)amino]-2-naphtyl}ethylidene)malonitrile]
- log P [6]: > 3
